Measured values from ChEMBL document CHEMBL1275379, “Indazolylpyrazolopyrimidine as highly potent B-Raf inhibitors with in vivo activity” (J Med Chem, 2010).
Calls of active or inactive are those of the source. No cut-off for these calls is given here.

How the values were obtained:
[1] = biological target: Angiopoietin-1 receptor (Homo sapiens, UniProt Q02763); test: Inhibition of TEK
[2] = biological target: T1, Proto-oncogene tyrosine-protein kinase receptor Ret (Homo sapiens, UniProt P07949); test: Inhibition of RET at 1 uM
[3] = biological target: Mitogen-activated protein kinase 1 (Homo sapiens) (UniProt P28482); test: Inhibition of MAPK1 at 1 uM
[4] = Half life in nude mouse; format: ADME, organism-based; details: in vivo
[5] = biological target: RAC-beta serine/threonine-protein kinase (Homo sapiens) (UniProt P31751); test: Inhibition of AKT2 at 1 uM
[6] = biological target: Fibroblast growth factor receptor 2 (Homo sapiens) (UniProt P21802); test: Inhibition of FGFR2 at 1 uM
[7] = biological target: Aurora kinase A (Homo sapiens) (UniProt O14965); test: Inhibition of AURKA at 1 uM
[8] = biological target: Proto-oncogene tyrosine-protein kinase Src (Homo sapiens) (UniProt P12931); details: 1 uM
Description: Inhibition of SRC at 1 uM

[9] = biological target: RAC-alpha serine/threonine-protein kinase (Homo sapiens) (UniProt P31749); test: Inhibition of AKT1 at 1 uM
[10] = biological target: Protein kinase C alpha (Homo sapiens) (UniProt P17252); test: Inhibition of PRKCA at 1 uM
[11] = biological target: Mitogen-activated protein kinase 14 (Homo sapiens, UniProt Q16539); details: 1 uM
Description: Inhibition of MAPK14 at 1 uM

[12] = AUC (infinity) in nude mouse at 10 mg/kg, po; format: ADME, organism-based; parameters: time infinity, dose 10 mg/kg, route oral; details: plasma
[13] = biological target: Insulin-like growth factor 1 receptor (Homo sapiens) (UniProt P08069); test: Inhibition of IGF1R at 1 uM
[14] = biological target: MAP kinase-activated protein kinase 2 (Homo sapiens) (UniProt P49137); test: Inhibition of MAPKAPK2 at 1 uM
[15] = Half life in nude mouse liver microsomes; format: ADME, Microsome
[16] = biological target: Protein kinase C beta type (Homo sapiens) (UniProt P05771); test: Inhibition of PRKCB1 at 1 uM
[17] = biological target: Tyrosine-protein kinase BTK (Homo sapiens) (UniProt Q06187); test: Inhibition of BTK at 1 uM
[18] = biological target: Inhibitor of nuclear factor kappa-B kinase subunit beta (Homo sapiens) (UniProt O14920); test: Inhibition of IKBKB at 1 uM
[19] = biological target: T2, Epidermal growth factor receptor (Homo sapiens, UniProt P00533)
[20] = biological target: Dual specificity mitogen-activated protein kinase kinase 1 (Homo sapiens) (UniProt Q02750); test: Inhibition of MAP2K at 1 uM
[21] = biological target: Tyrosine-protein kinase ABL1 (Homo sapiens, UniProt P00519); test: Inhibition of ABL1 at 1 uM
[22] = biological target: T3, RAF proto-oncogene serine/threonine-protein kinase (Homo sapiens, UniProt P04049); test: Inhibition of C-raf
[23] = Oral bioavailability in nude mouse at 10 mg/kg; format: ADME, organism-based; details: in vivo, read-out: Activity
[24] = system: Serine/threonine-protein kinase B-raf (Homo sapiens), P15056 [V600E]; test: Inhibition of BRAF V600E mutant in human A375 cells assessed as reduction of ERK phosphorylation; format: cell-based; details: A-375
[25] = biological target: T4, Tyrosine-protein kinase Lck (Homo sapiens, UniProt P06239); test: Inhibition of LCK
[26] = biological target: Protein kinase C beta type (Homo sapiens) (UniProt P05771); test: Inhibition of PRKCB2 at 1 uM
[27] = biological target: Cyclin-dependent kinase 1/cyclin B (Homo sapiens) (UniProt P06493+P14635+Q8WWL7+O95067); test: Inhibition of CDK1/cyclin B at 1 uM; format: protein-complex assay
[28] = biological target: Serine/threonine-protein kinase Chk1 (Homo sapiens) (UniProt O14757); test: Inhibition of CHEK1 at 1 uM
[29] = biological target: Focal adhesion kinase 1 (PTK2) (Homo sapiens) (UniProt Q05397); test: Inhibition of PTK2 at 1 uM
[30] = biological target: Ribosomal protein S6 kinase beta-1 (Homo sapiens) (UniProt P23443); test: Inhibition of RPS6B1 at 1 uM
[31] = biological target: Serine/threonine-protein kinase pim-1 (Homo sapiens) (UniProt P11309); test: Inhibition of PIM1 at 1 uM
[32] = biological target: Glycogen synthase kinase-3 beta (Homo sapiens) (UniProt P49841); test: Inhibition of GSK3B at 1 uM
[33] = Clearance in nude mouse; format: ADME, organism-based; details: in vivo
[34] = biological target: Ephrin type-A receptor 1 (Homo sapiens) (UniProt P21709); test: Inhibition of EPHA1 at 1 uM
[35] = biological target: T3, RAF proto-oncogene serine/threonine-protein kinase; details: 1 uM
Description: Inhibition of C-raf at 1 uM

[36] = biological target: Mitogen-activated protein kinase 3 (Homo sapiens) (UniProt P27361); test: Inhibition of MAPK3 at 1 uM
[37] = biological target: T2, Epidermal growth factor receptor; details: 1 uM
Description: Inhibition of EGFR at 1 uM

[38] = Inhibition of RPS6K at 1 uM
[39] = biological target: T4, Tyrosine-protein kinase Lck; test: Inhibition of LCK at 1 uM
[40] = biological target: Receptor tyrosine-protein kinase erbB-2 (Homo sapiens) (UniProt P04626); test: Inhibition of ERBB2 at 1 uM
[41] = system: Mus musculus; test: Toxicity in human A375 cells xenografted nude mouse; format: organism-based, A-375; details: in vivo
[42] = biological target: T1, Proto-oncogene tyrosine-protein kinase receptor Ret; test: Inhibition of RET
[43] = biological target: Serine/threonine-protein kinase B-raf (Homo sapiens, UniProt P15056); test: Inhibition of BRAF at 1 uM
[44] = biological target: Serine/threonine-protein kinase PLK1 (Homo sapiens) (UniProt P53350); test: Inhibition of PLK1 at 1 uM
[45] = biological target: Tyrosine-protein kinase Fes/Fps (Homo sapiens) (UniProt P07332); test: Inhibition of FES at 1 uM
[46] = Drug level in tumor tissue of human A375 cells xenografted nude mouse at 25 mg/kg, po after 6 hrs; format: ADME, organism-based, Neoplasm, A-375; parameters: dose 25 mg/kg, route oral; details: read-out: Drug uptake
[47] = biological target: Tyrosine-protein kinase ZAP-70 (Homo sapiens) (UniProt P43403); test: Inhibition of ZAP70 at 1 uM
[48] = biological target: Aurora kinase B (Homo sapiens) (UniProt Q96GD4); test: Inhibition of AURKB at 1 uM
[49] = biological target: Tyrosine-protein kinase Yes (Homo sapiens, UniProt P07947); test: Inhibition of YES1
[50] = biological target: Tyrosine-protein kinase JAK2 (Homo sapiens) (UniProt O60674); test: Inhibition of JAK2 at 1 uM
[51] = biological target: Platelet-derived growth factor receptor beta (Homo sapiens) (UniProt P09619); test: Inhibition of PDGFRB at 1 uM
[52] = biological target: Cyclin-dependent kinase 2/cyclin A (Homo sapiens) (UniProt P24941+P20248+P78396); test: Inhibition of CDK2/cyclin A at 1 uM; format: protein-complex assay

IC50 [1]: 293 nM
inhibition [2]: 84%
inhibition [3]: 6%
half-life [4]: 3.5 h
inhibition [5]: 9%
inhibition [6]: 66%
inhibition [7]: 7%
inhibition [8]: 77%
inhibition [9]: 5%
inhibition [10]: 9%
inhibition [11]: 81%
AUC(0-inf) [12]: 4000 ng·h/mL
inhibition [13]: 5%
inhibition [14]: -1%
half-life [15]: > 0.5 h
inhibition [16]: 39%
inhibition [17]: 48%
inhibition [18]: 5%
IC50 [19]: 173 nM
inhibition [20]: 12%
inhibition [21]: 70%
IC50 [22]: 8.52 nM
bioavailability [23]: 54%
inhibition [24]: Active
IC50 [25]: 505 nM
inhibition [26]: 51%
inhibition [27]: 0%
inhibition [28]: 0%
inhibition [29]: 15%
inhibition [30]: 5%
inhibition [31]: 5%
inhibition [32]: 35%
clearance [33]: 23 mL/min/kg
inhibition [34]: 84%
inhibition [35]: 88%
inhibition [36]: 5%
inhibition [37]: 77%
inhibition [38]: 14%
inhibition [39]: 73%
inhibition [40]: 37%
IC50 [42]: 160 nM
inhibition [43]: 100%
inhibition [44]: 11%
inhibition [45]: 21%
concentration at 6 h [46]: 6.6 µM
inhibition [47]: 4%
inhibition [48]: 0%
IC50 [49]: 246 nM
inhibition [50]: -6%
inhibition [51]: 9%
inhibition [52]: 4%
SMILES: CN1C[C@@H]2C[C@H]1CN2c1cc(F)c(-c2ccnc3c(-c4cccc5[nH]ncc45)c(-c4ccncc4)nn23)c(F)c1
Activity [41]: Non-toxic
